“And” between values parts separate entries of the source, which are not always exact repeats. Equal entries are not always repeated.
Key:
Test in all cases: NCI one-dose screen
Type in all cases: cell-based, human
[1] = tested on: NCI-H460; details: NSCLC NCI-H460, 10 µM single dose
Method in brief: (§1)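 At 10 μM, a single concentration, compounds were evaluated for antiproliferative effect in the NCI 60-line screen, with growth expressed relative to untreated control cells.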

[2] = tested on: BT-549; details: Breast BT-549, 10 µM single dose
Method in brief: as §1

[3] = tested on: TK-10; details: Renal TK-10, 10 µM single dose
Method in brief: as §1

[4] = tested on: K-562; details: Leukemia K-562, 10 µM single dose
Method in brief: as §1

[5] = tested on: NCI-H322M; details: NSCLC NCI-H322M, 10 µM single dose
Method in brief: as §1

[6] = tested on: SK-MEL-28; details: Melanoma SK-MEL-28, 10 µM single dose
Method in brief: (§2)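 One concentration (10 μM) applied to each line of the full NCI-60 panel; percent growth compared against untreated cells.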

[7] = tested on: CAKI-1; details: Renal CAKI-1, 10 µM single dose
Method in brief: as §1

[8] = tested on: COLO 205; details: Colon COLO 205, 10 µM single dose
Method in brief: as §1

[9] = tested on: PC-3; details: Prostate PC-3, 10 µM single dose
Method in brief: as §2

[10] = tested on: OVCAR-3; details: Ovarian OVCAR-3, 10 µM single dose
Method in brief: as §1

[11] = tested on: SF-539; details: CNS SF-539, 10 µM single dose
Method in brief: as §2

[12] = tested on: SNB-19; details: CNS SNB-19, 10 µM single dose
Method in brief: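 Compounds were tested at a single dose of 10 μM across the full NCI-60 cell line panel. Growth was expressed as percent growth relative to untreated control cells, reported as percent inhibition.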

[13] = tested on: SF-295; details: CNS SF-295, 10 µM single dose
Method in brief: as §1

[14] = tested on: SF-268; details: CNS SF-268, 10 µM single dose
Method in brief: as §2

[15] = tested on: UACC-257; details: Melanoma UACC-257, 10 µM single dose
Method in brief: as §2

[16] = tested on: HCT-116; details: Colon HCT-116, 10 µM single dose
Method in brief: as §1

[17] = tested on: HOP-92; details: NSCLC HOP-92, 10 µM single dose
Method in brief: as §1

[18] = tested on: RPMI-8226; details: Leukemia RPMI-8226, 10 µM single dose
Method in brief: as §1

[19] = tested on: KM12; details: Colon KM12, 10 µM single dose
Method in brief: as §2

[20] = tested on: SN12C; details: Renal SN12C, 10 µM single dose
Method in brief: as §1

[21] = tested on: LOX IMVI; details: Melanoma LOX IMVI, 10 µM single dose
Method in brief: as §1

[22] = tested on: MCF7; details: Breast MCF7, 10 µM single dose
Method in brief: as §2

[23] = tested on: 786-0; details: Renal 786-0, 10 µM single dose
Method in brief: as §1

[24] = tested on: NCI-H522; details: for Growth Percent: NSCLC NCI-H522, 10 µM single dose
Method in brief: (§3)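 Following the standard NCI-60 protocol, compounds were applied once at 10 μM to all 60 cancer lines. Read-out is percent growth versus untreated controls, expressed as inhibition %.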

[25] = tested on: U251; details: CNS U251, 10 µM single dose
Method in brief: as §3

[26] = tested on: SR; details: Leukemia SR, 10 µM single dose
Method in brief: as §1

[27] = tested on: NCI-H23; details: NSCLC NCI-H23, 10 µM single dose
Method in brief: as §2

[28] = tested on: HCC-2998; details: Colon HCC-2998, 10 µM single dose
Method in brief: as §1

[29] = tested on: OVCAR-5; details: Ovarian OVCAR-5, 10 µM single dose
Method in brief: as §1

[30] = tested on: ACHN; details: Renal ACHN, 10 µM single dose
Method in brief: as §1

[31] = tested on: MDA-MB-231/ATCC; details: Breast MDA-MB-231/ATCC, 10 µM single dose
Method in brief: as §1

[32] = tested on: T-47D; details: Breast T-47D, 10 µM single dose
Method in brief: as §1

[33] = tested on: MALME-3M; details: Melanoma MALME-3M, 10 µM single dose
Method in brief: as §1

[34] = tested on: HL-60(TB); details: Leukemia HL-60(TB), 10 µM single dose
Method in brief: as §1

[35] = tested on: OVCAR-8; details: Ovarian OVCAR-8, 10 µM single dose
Method in brief: as §1

[36] = tested on: MDA-MB-435; details: Melanoma MDA-MB-435, 10 µM single dose
Method in brief: as §1

[37] = tested on: SK-OV-3; details: Ovarian SK-OV-3, 10 µM single dose
Method in brief: as §1

Cc1c(C(=O)NO)sc2ncnc(Nc3cccc4[nH]cnc34)c12 [Compound 15a, 4-(1H-benzo[d]imidazol-4-ylamino)-N-hydroxy-5-methylthieno[2,3-d]pyrimidine-6-carboxamide]
Growth Percent [1]: 102.7% and 102.72% | Growth Percent [2]: 113.5% and 113.56% | Growth Percent [3]: 113.8% and 113.84% | Growth Percent [4]: 101.00% | Growth Percent [5]: 99.4% and 99.43% | Growth Percent [6]: 107.8% and 107.83% | Growth Percent [7]: 92.9% and 92.95% | Growth Percent [8]: 112.8% and 112.81% | Growth Percent [9]: 104.3% and 104.34% | Growth Percent [10]: 106.1% and 106.13% | Growth Percent [11]: 102.5% and 102.52% | Growth Percent [12]: 98.9% and 98.99% | Growth Percent [13]: 103.7% | Growth Percent [14]: 93.9% | Growth Percent [15]: 112.4% and 112.47% | Growth Percent [16]: 103.9% and 103.95% | Growth Percent [17]: 118.2% and 118.26% | Growth Percent [18]: 112.17% | Growth Percent [19]: 101.12% | Growth Percent [20]: 102.0% and 102.01% | Growth Percent [21]: 97.5% and 97.58% | Growth Percent [22]: 95.2% and 95.25% | Growth Percent [23]: 102.1% and 102.13% | Growth Percent [24]: 94.4% and 94.42% | Growth Percent [25]: 96.7% and 96.72% | Growth Percent [26]: 106% and 106.56% | Growth Percent [27]: 92.2% and 92.27% | Growth Percent [28]: 100.9% and 100.92% | Growth Percent [29]: 107.0% and 107.01% | Growth Percent [30]: 99.1% and 99.11% | Growth Percent [31]: 102.4% and 102.49% | Growth Percent [32]: 108.3% and 108.35% | Growth Percent [33]: 109.7% and 109.71% | Growth Percent [34]: 101.2% and 101.27% | Growth Percent [35]: 103.6% and 103.64% | Growth Percent [36]: 101.5% and 101.54% | Growth Percent [37]: 124.5% and 124.53%

Cc1c(C(=O)NCCC(=O)NO)sc2ncnc(Nc3ccccc3)c12 [Compound 19b, N-(3-(hydroxyamino)-3-oxopropyl)-5-methyl-4-(phenylamino)thieno[2,3-d]pyrimidine-6-carboxamide]
Growth Percent [1]: 100.8% and 100.82% | Growth Percent [2]: 109.1% and 109.16% | Growth Percent [3]: 108.2% and 108.29% | Growth Percent [4]: 101.9% and 101.92% | Growth Percent [5]: 99.0% and 99.06% | Growth Percent [6]: 107.9% and 107.91% | Growth Percent [7]: 96.2% and 96.21% | Growth Percent [8]: 110.7% and 110.74% | Growth Percent [9]: 105.1% and 105.18% | Growth Percent [10]: 115.3% and 115.34% | Growth Percent [11]: 93.6% and 93.63% | Growth Percent [12]: 99.8% and 99.82% | Growth Percent [13]: 91.8% and 91.88% | Growth Percent [14]: 97.0% | Growth Percent [15]: 105.0% and 105.04% | Growth Percent [16]: 105.6% and 105.69% | Growth Percent [17]: 102.5% | Growth Percent [18]: 103.3% and 103.33% | Growth Percent [19]: 101.9% and 101.98% | Growth Percent [20]: 98.5% and 98.51% | Growth Percent [21]: 93.7% | Growth Percent [22]: 92.3% and 92.31% | Growth Percent [23]: 102.5% and 102.58% | Growth Percent [24]: 90.5% and 90.58% | Growth Percent [25]: 101.5% and 101.54% | Growth Percent [26]: 104.5% and 104.58% | Growth Percent [27]: 95.7% and 95.71% | Growth Percent [28]: 97.7% | Growth Percent [29]: 102.0% and 102.09% | Growth Percent [30]: 106.3% and 106.37% | Growth Percent [31]: 101.7% and 101.73% | Growth Percent [32]: 101.18% | Growth Percent [33]: 102.5% and 102.54% | Growth Percent [34]: 103.7% | Growth Percent [35]: 99.4% and 99.45% | Growth Percent [36]: 102.9% and 102.98% | Growth Percent [37]: 122.0% and 122.03%

Cc1c(C(=O)NO)sc2ncnc(Nc3ccc(Cl)cc3)c12 [Compound 15c, 4–(4-chlorophenylamino)-N-hydroxy-5-methylthieno[2,3-d]pyrimidine-6-carboxamide]
Growth Percent [1]: 98.9% and 98.93% | Growth Percent [2]: 116.4% and 116.44% | Growth Percent [3]: 154.5% and 154.58% | Growth Percent [4]: 105.0% | Growth Percent [5]: 97.2% and 97.24% | Growth Percent [6]: 110.6% and 110.64% | Growth Percent [7]: 86.4% and 86.45% | Growth Percent [8]: 116.7% and 116.75% | Growth Percent [9]: 97.6% and 97.64% | Growth Percent [10]: 98.9% and 98.94% | Growth Percent [11]: 104.0% | Growth Percent [12]: 94.8% and 94.85% | Growth Percent [13]: 102.7% and 102.79% | Growth Percent [14]: 94.8% and 94.84% | Growth Percent [15]: 110.0% and 110.09% | Growth Percent [16]: 100.9% and 100.92% | Growth Percent [17]: 101.5% and 101.51% | Growth Percent [18]: 104.3% and 104.38% | Growth Percent [19]: 100.9% and 100.92% | Growth Percent [20]: 98.6% and 98.63% | Growth Percent [21]: 95.8% and 95.88% | Growth Percent [22]: 88.6% | Growth Percent [23]: 108.7% and 108.78% | inhibition at 10 µM ([24]; Homo sapiens, NSCLC NCI-H522, 10 μM): 25.4% | Growth Percent [24]: 74.5% and 74.57% | Growth Percent [25]: 100.9% and 100.96% | Growth Percent [26]: 102.7% and 102.79% | Growth Percent [27]: 91.8% and 91.83% | Growth Percent [28]: 115.4% and 115.42% | Growth Percent [29]: 107.6% and 107.61% | Growth Percent [30]: 97.3% and 97.37% | Growth Percent [31]: 88.1% and 88.18% | Growth Percent [32]: 90.6% and 90.65% | Growth Percent [33]: 102.3% and 102.31% | Growth Percent [34]: 104.9% and 104.93% | Growth Percent [35]: 102.0% and 102.02% | Growth Percent [36]: 102.4% and 102.42% | Growth Percent [37]: 93.4% and 93.42%
